Counter-ions that a name gives are not always drawn.
Target: CCR8 (Homo sapiens, UniProt P51685)
Test: Tango assay (Tango-CCR8-Gal4-CHO-K1 cells, CCL1-stimulated, ONE-Glo luminescence)
Conditions: Tango Assay IC50, Inhibition of CCR8 Tango cell in vitro

Sequence of CCR8 (P51685 whole entry, the tested form may be a part): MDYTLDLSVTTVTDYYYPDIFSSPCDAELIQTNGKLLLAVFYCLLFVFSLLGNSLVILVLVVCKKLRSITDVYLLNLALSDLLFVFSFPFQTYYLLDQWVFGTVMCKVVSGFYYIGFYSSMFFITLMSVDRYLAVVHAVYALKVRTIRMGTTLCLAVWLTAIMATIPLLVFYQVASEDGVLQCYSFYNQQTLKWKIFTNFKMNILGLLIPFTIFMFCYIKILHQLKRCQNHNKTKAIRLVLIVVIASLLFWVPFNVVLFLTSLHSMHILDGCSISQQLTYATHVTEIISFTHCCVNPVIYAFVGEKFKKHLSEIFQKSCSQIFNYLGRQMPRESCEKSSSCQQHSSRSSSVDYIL

Row | Structure (SMILES) | IC50 [nM]
1 | Cc1ccccc1C(=O)Nc1ccc(S(=O)(=O)NC(C)CN2CCC(C)CC2)c2ccccc12 (stereo not drawn) [Compound 74, 2-methyl-N-(4-(N-(1-(4-methylpiperidin-1-yl)propan-2-yl)sulfamoyl)naphthalen-1-yl)benzamide] | 647
2 | Cc1ccccc1C(=O)Nc1ccc(S(=O)(=O)NC(C)CC2CCNCC2)c2ccccc12 (stereo not drawn) [Compound 126, 2-methyl-N-(4-(N-(1-(piperidin-4-yl)propan-2-yl)sulfamoyl)naphtha-len-1-yl)benzamide] | 133
3 | Cc1cc(S(=O)(=O)NC(C2CCNCC2)C2CC2)ccc1NC(=O)c1ccccc1C (stereo not drawn) [Compound 225A, N-(4-(N-(cyclopropyl (piperidin-4-yl)methyl)sulfamoyl)-2-methylphenyl)-2-methylbenzamide] | 25
4 | Cc1ccccc1C(=O)Nc1ccc(S(=O)(=O)NC(C)C2CCCCN2)c2ccccc12 (stereo not drawn) [Compound 69A, 2-methyl-N-(4-(N-(1-(piperidin-2-yl)ethyl)sulfamoyl)naph-thalen-1-yl)benzamide] | > 10000
5 | Cc1ccccc1C(=O)Nc1cc(C)c(S(=O)(=O)N[C@H](C)C2CCNCC2)cc1Cl [Compound 187A, (R)-N-(2-chloro-5-methyl-4-(N-(1-(piperidin-4-yl)ethyl)sulfamoyl)phen-yl)-2-methylbenzamide hydrochloride] | 6.3
6 | Cc1ccccc1C(=O)Nc1ccc(S(=O)(=O)N[C@H](C)C2CCN(C(=O)OC(C)(C)C)CC2)cc1C#N [Compound 193, (R)-tert-butyl 4-(1-(3-cyano-4-(2-methylbenzamido)phenylsulfonamido)ethyl) piperidine-1-carboxylate] | > 10000
7 | CN1CCN(C(=O)N2CCC(NS(=O)(=O)c3ccc4[nH]c(-c5ccccc5)nc4c3)CC2)CC1 [Compound 44, N-(1-(4-methylpiperazine-1-carbonyl)piperidin-4-yl)-2-phenyl-1H-m benzo[d]imidazole-5-sulfonamide] | > 10000
8 | Cc1cc(S(=O)(=O)N[C@H](C)C2CCNCC2)ccc1NC(=O)c1cccc2c1CCC2 [Compound 310, (R)-N-(2-methyl-4-(N-(1-(piperidin-4-yl)ethyl)sulfamoyl)phenyl)-2,3-dihydro-1H-indene-4-carboxamide hydrochloride] | 5
9 | Cc1ccccc1C(=O)Nc1ccc(S(=O)(=O)NC(C)C23CCC(CC2)CC3)c2ccccc12 (stereo not drawn) [Compound 132, N-(4-(N-(1-(bicyclo[2.2.2]octan-1-yl)ethyl)sulfamoyl)naphthalen-1-yl)-2-methylbenzamide] | 3.2
10 | Cc1cc(S(=O)(=O)NC(C)C2CCOCC2)ccc1NC(=O)c1ccccc1C (stereo not drawn) [Compound 239, 2-methyl-N-(2-methyl-4-(N-(1-(tetrahydro-2H-pyran-4-yl)ethyl)sulfamoyl)phen-yl)benzamide] | 843
11 | Cc1ccccc1C(=O)Nc1ccc(S(=O)(=O)N[C@H](C)C2CCNCC2)c(Cl)c1C [Compound 179A, (R)-N-(3-chloro-2-methyl-4-(N-(1-(piperidin-4-yl)eth-yl)sulfamoyl)phen-yl)-2-methylbenzamide, hydrochloride] | 158
12 | COc1cc(NC(=O)c2ccccc2C)c(C)cc1S(=O)(=O)NC(C)C1CC2CCC1CC2 (stereo not drawn) [Compound 184, N-(4-(N-(1-(bicyclo[2.2.2]octan-2-yl)ethyl)sulfamoyl)-5-methoxy-2-methylphenyl)-2-methylbenzamide] | 16
13 | CC(NS(=O)(=O)c1ccc2[nH]cnc2c1)C1CCCCC1 (stereo not drawn) [Compound 78, N-(1-cyclohexylethyl)-1H-benzo[d]imidazole-5-sulfonamide] | > 10000
14 | CC(C)(C)OC(=O)N1CCC(NS(=O)(=O)c2ccc(-c3nc4ccccc4[nH]3)cc2)CC1 [Compound 102, tert-butyl 4-(4-(1H-benzo[d]imidazol-2-yl)phenylsulfonamido) piperidine-1-carboxylate] | > 10000
15 | CC(NS(=O)(=O)c1ccc(F)c(C(=O)O)c1)C1CCCCC1 (stereo not drawn) [Compound 141, 5-(N-(1-cyclohexylethyl)sul-famoyl)-2-fluorobenzoic acid] | > 10000

— patent US12552753B2, “Methods and compositions for targeting Tregs using CCR8 inhibitors” (Nanjing Immunophage Biomedical Co., Ltd., priority 2020, dated 2026)
